# Laboratory results reported in patent US9302999B2, “Substituted triazoles as herbicides” (E. I. DU PONT DE NEMOURS AND COMPANY, priority 2012, dated 2016).
# Tests used:
# Format in all cases: in vivo
# [1] = system: morningglory (Ipomoea coccinea); assay: Test C pre-/postemergence: morningglory
# Outline: (§1)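 Preemergence on seeds in loam/sand, postemergence on 2–18 cm (1–4-leaf) plants in peat-based medium; compounds in non-phytotoxic solvent with surfactant. After 13–15 days in greenhouse, visual rating versus controls, 0 (no effect) to 100 (complete control).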
# [2] = system: blackgrass (Alopecurus myosuroides); assay: Test C pre-/postemergence: blackgrass
# Outline: as §1
# [3] = system: crabgrass, large (large crabgrass, Digitaria sanguinalis); assay: Test A pre-/postemergence: crabgrass, large
# Outline: (§2)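 Rating scale 0–100 (100 = complete control), visual, ~10 days after application in the greenhouse. Applications: preemergence directed soil spray; postemergence at 1–2 leaves.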
# [4] = system: corn (Zea mays); assay: Test C pre-/postemergence: corn
# Outline: as §1
# [5] = system: wheat (Triticum aestivum); assay: Test A pre-/postemergence: wheat
# Outline: as §2
# [6] = system: barnyardgrass (Echinochloa crus-galli); assay: Test A pre-/postemergence: barnyardgrass
# Outline: as §2
# [7] = system: pigweed (Amaranthus retroflexus); assay: Test A pre-/postemergence: pigweed
# Outline: as §2
# [8] = system: lambsquarters (Chenopodium album); assay: Test C pre-/postemergence: lambsquarters
# Outline: as §1
# [9] = system: nutsedge, yellow (yellow nutsedge, Cyperus esculentus); assay: Test C pre-/postemergence: nutsedge, yellow
# Outline: as §1
# [10] = system: foxtail, giant (giant foxtail, Setaria faberii); assay: Test C pre-/postemergence: foxtail, giant
# Outline: as §1
# [11] = system: large crabgrass (Digitaria sanguinalis); assay: Test C pre-/postemergence: large crabgrass
# Outline: as §1
# [12] = Postemergence, 31 g ai/ha, scale 0 to 100 (0 no effect, 100 complete control)
# [13] = Postemergence, 62 g ai/ha, scale 0 to 100 (0 no effect, 100 complete control)
# [14] = Postemergence, 125 g ai/ha, scale 0 to 100, 0 no effect, 100 complete control
# [15] = Postemergence, 250 g ai/ha, scale 0 to 100 (0 no effect, 100 complete control)
# [16] = Preemergence, 31 g ai/ha, scale 0 (no effect) to 100 (complete control)
# [17] = Preemergence, 62 g ai/ha, scale of 0 to 100, 0 is no effect, 100 is complete control
# [18] = Preemergence, 125 g ai/ha, scale 0 to 100, 0 no effect, 100 complete control
# [19] = Preemergence, 250 g ai/ha, scale 0 to 100, 0 no effect, 100 complete control
# [20] = Postemergence, 250 g ai/ha, scale 0 to 100
# [21] = Postemergence, 125 g ai/ha, 0 to 100 scale, 0 is no effect, 100 is complete control
# [22] = Postemergence, 500 g ai/ha, 0 to 100 scale, 0 is no effect, 100 is complete control
# [23] = Preemergence, 125 g ai/ha, 0 to 100 scale where 0 is no effect and 100 is complete control
# [24] = Preemergence, 500 g ai/ha, 0 to 100 scale (0 no effect, 100 complete control)
smiles,measurement,setting,value
CCCc1nn(-c2ccc(F)cc2F)nc1Oc1ccnc(C(F)(F)F)c1 [Compound 179],"Plant response rating, Morningglory",[1]; [12],65
same,"Plant response rating, Morningglory",[1]; [13],80
same,"Plant response rating, Morningglory",[1]; [14],80
same,"Plant response rating, Morningglory",[1]; [15],90
same,"Plant response rating, Morningglory",[1]; [16],5
same,"Plant response rating, Morningglory",[1]; [17],40
same,"Plant response rating, Morningglory",[1]; [18],55
same,"Plant response rating, Morningglory",[1]; [19],65
same,"Plant response rating, Blackgrass",[2]; [12],30
same,"Plant response rating, Blackgrass",[2]; [13],50
same,"Plant response rating, Blackgrass",[2]; [14],55
same,"Plant response rating, Blackgrass",[2]; [20],60
same,"Plant response rating, Blackgrass",[2]; [16],80
same,"Plant response rating, Blackgrass",[2]; [17],100
same,"Plant response rating, Blackgrass",[2]; [18],100
same,"Plant response rating, Blackgrass",[2]; [19],100
same,"Plant response rating, Crabgrass, Large",[3]; [21],90
same,"Crabgrass, Large plant response rating",[3]; [22],90
same,"Plant response rating, Crabgrass, Large",[3]; [23],100
same,"Plant response rating, Crabgrass, Large",[3]; [24],100
same,"Plant response rating, Corn",[4]; [12],15
same,"Plant response rating, Corn",[4]; [13],15
same,"Plant response rating, Corn",[4]; [14],15
same,"Plant response rating, Corn",[4]; [20],15
same,"Plant response rating, Corn",[4]; [16],5
same,"Plant response rating, Corn",[4]; [17],20
same,"Plant response rating, Corn",[4]; [18],20
same,"Plant response rating, Corn",[4]; [19],20
same,"Plant response rating, Wheat",[5]; [21],30
same,Wheat plant response rating,[5]; [22],40
same,"Plant response rating, Wheat",[5]; [23],20
same,"Plant response rating, Wheat",[5]; [24],50
same,"Plant response rating, Barnyardgrass",[6]; [21],90
same,Barnyardgrass plant response rating,[6]; [22],90
same,"Plant response rating, Barnyardgrass",[6]; [23],90
same,"Plant response rating, Barnyardgrass",[6]; [24],100
same,"Plant response rating, Pigweed",[7]; [21],100
same,Pigweed plant response rating,[7]; [22],100
same,"Plant response rating, Pigweed",[7]; [23],100
same,"Plant response rating, Pigweed",[7]; [24],100
same,"Plant response rating, Lambsquarters",[8]; [12],80
same,"Plant response rating, Lambsquarters",[8]; [13],80
same,"Plant response rating, Lambsquarters",[8]; [14],85
same,"Plant response rating, Lambsquarters",[8]; [15],90
same,"Plant response rating, Lambsquarters",[8]; [16],98
same,"Plant response rating, Lambsquarters",[8]; [17],98
same,"Plant response rating, Lambsquarters",[8]; [18],98
same,"Plant response rating, Lambsquarters",[8]; [19],100
same,"Plant response rating, Nutsedge, Yellow",[9]; [12],5
same,"Plant response rating, Nutsedge, Yellow",[9]; [13],5
same,"Plant response rating, Nutsedge, Yellow",[9]; [14],10
same,"Plant response rating, Nutsedge, Yellow",[9]; [15],10
same,"Plant response rating, Nutsedge, Yellow",[9]; [16],0
same,"Plant response rating, Nutsedge, Yellow",[9]; [17],0
same,"Plant response rating, Nutsedge, Yellow",[9]; [18],0
same,"Plant response rating, Nutsedge, Yellow",[9]; [19],5
same,"Plant response rating, Foxtail, Giant",[10]; [12],35
same,"Plant response rating, Foxtail, Giant",[10]; [13],40
same,"Plant response rating, Foxtail, Giant",[10]; [14],55
same,"Plant response rating, Foxtail, Giant",[10]; [20],80
same,"Plant response rating, Foxtail, Giant",[10]; [16],100
same,"Plant response rating, Foxtail, Giant",[10]; [17],100
same,"Plant response rating, Foxtail, Giant",[10]; [18],100
same,"Plant response rating, Foxtail, Giant",[10]; [19],100
same,"Plant response rating, Crabgrass, Large",[11]; [12],20
same,"Plant response rating, Crabgrass, Large",[11]; [13],20
same,"Plant response rating, Crabgrass, Large",[11]; [14],35
same,"Plant response rating, Crabgrass, Large",[11]; [20],80
same,"Plant response rating, Crabgrass, Large",[11]; [16],100
same,"Plant response rating, Crabgrass, Large",[11]; [17],100
same,"Plant response rating, Crabgrass, Large",[11]; [18],100
same,"Plant response rating, Crabgrass, Large",[11]; [19],100
CCOc1nn(-c2ccc(Cl)cc2)nc1Cc1ccnc(C(F)(F)F)c1 [Compound 188],"Plant response rating, Morningglory",[1]; [12],70
same,"Plant response rating, Morningglory",[1]; [13],100
same,"Plant response rating, Morningglory",[1]; [14],100
same,"Plant response rating, Morningglory",[1]; [17],60
same,"Plant response rating, Morningglory",[1]; [18],85
same,"Plant response rating, Morningglory",[1]; [19],100
same,"Plant response rating, Blackgrass",[2]; [12],55
same,"Plant response rating, Blackgrass",[2]; [13],55
same,"Plant response rating, Blackgrass",[2]; [14],85
same,"Plant response rating, Blackgrass",[2]; [20],90
same,"Plant response rating, Blackgrass",[2]; [16],80
same,"Plant response rating, Blackgrass",[2]; [17],100
same,"Plant response rating, Blackgrass",[2]; [18],100
same,"Plant response rating, Blackgrass",[2]; [19],100
same,"Plant response rating, Crabgrass, Large",[3]; [21],90
same,"Crabgrass, Large plant response rating",[3]; [22],90
same,"Plant response rating, Crabgrass, Large",[3]; [23],100
same,"Plant response rating, Crabgrass, Large",[3]; [24],100
same,"Plant response rating, Corn",[4]; [12],10
same,"Plant response rating, Corn",[4]; [13],20
same,"Plant response rating, Corn",[4]; [14],20
same,"Plant response rating, Corn",[4]; [20],35
same,"Plant response rating, Corn",[4]; [16],5
same,"Plant response rating, Corn",[4]; [17],5
same,"Plant response rating, Corn",[4]; [18],10
same,"Plant response rating, Corn",[4]; [19],20
same,"Plant response rating, Wheat",[5]; [21],70
same,Wheat plant response rating,[5]; [22],70
same,"Plant response rating, Wheat",[5]; [23],30
same,"Plant response rating, Wheat",[5]; [24],50
same,"Plant response rating, Barnyardgrass",[6]; [21],90
same,Barnyardgrass plant response rating,[6]; [22],90
same,"Plant response rating, Barnyardgrass",[6]; [23],90
same,"Plant response rating, Barnyardgrass",[6]; [24],100
same,"Plant response rating, Pigweed",[7]; [21],100
same,Pigweed plant response rating,[7]; [22],100
same,"Plant response rating, Pigweed",[7]; [23],100
same,"Plant response rating, Pigweed",[7]; [24],100
same,"Plant response rating, Lambsquarters",[8]; [12],90
same,"Plant response rating, Lambsquarters",[8]; [13],95
same,"Plant response rating, Lambsquarters",[8]; [14],98
same,"Plant response rating, Lambsquarters",[8]; [15],98
same,"Plant response rating, Lambsquarters",[8]; [16],90
same,"Plant response rating, Lambsquarters",[8]; [17],90
same,"Plant response rating, Lambsquarters",[8]; [18],98
same,"Plant response rating, Lambsquarters",[8]; [19],100
same,"Plant response rating, Nutsedge, Yellow",[9]; [12],10
same,"Plant response rating, Nutsedge, Yellow",[9]; [13],10
same,"Plant response rating, Nutsedge, Yellow",[9]; [14],10
same,"Plant response rating, Nutsedge, Yellow",[9]; [15],15
same,"Plant response rating, Nutsedge, Yellow",[9]; [16],5
same,"Plant response rating, Nutsedge, Yellow",[9]; [17],5
same,"Plant response rating, Nutsedge, Yellow",[9]; [18],5
same,"Plant response rating, Nutsedge, Yellow",[9]; [19],20
same,"Plant response rating, Foxtail, Giant",[10]; [12],98
same,"Plant response rating, Foxtail, Giant",[10]; [13],98
same,"Plant response rating, Foxtail, Giant",[10]; [14],98
same,"Plant response rating, Foxtail, Giant",[10]; [20],100
same,"Plant response rating, Foxtail, Giant",[10]; [16],100
same,"Plant response rating, Foxtail, Giant",[10]; [17],100
same,"Plant response rating, Foxtail, Giant",[10]; [18],100
same,"Plant response rating, Foxtail, Giant",[10]; [19],100
same,"Plant response rating, Crabgrass, Large",[11]; [12],50
same,"Plant response rating, Crabgrass, Large",[11]; [13],85
same,"Plant response rating, Crabgrass, Large",[11]; [14],95
same,"Plant response rating, Crabgrass, Large",[11]; [20],95
same,"Plant response rating, Crabgrass, Large",[11]; [16],98
same,"Plant response rating, Crabgrass, Large",[11]; [17],100
same,"Plant response rating, Crabgrass, Large",[11]; [18],100
same,"Plant response rating, Crabgrass, Large",[11]; [19],100
